Measurements published in patent US20020086278A1, “CHROMOGENIC MEDIA CONTAINING BLOOD OR HEMIN” (priority 1999, published 2002).
“And” between values parts separate entries of the source, which are not always exact repeats. Identical values can stand only once. Counter-ions that a name gives are not always drawn. Like-named read-outs stand apart in the source and are kept apart here.

What was measured:
N. sicca 29193 [1] = test: Example 2: effect of incubation conditions on colony color formation; format: cell-based
[2] = tested on: E. coli (non-O157) (esco); format: cell-based
[3] = tested on: Pseudomonas aeruginosa (psae); test: Example 3: colony color on chromogenic TSA II with 5% sheep blood (chromogen in medium); format: cell-based; details: for Colony Color (Summary): chromogenic TSA II with 5% Sheep Blood, 0.1 g/l, 3 strains tested; for Colony Color: CO2
S. epidermidis 12228 [4] = test: Example 1: growth and colony color on plates surface-spread with chromogen; format: cell-based; details: for Color: S. epi 12228
[5] = tested on: Neisseria meningitidis 13090; test: as above; format: cell-based
[6] = tested on: Staphylococcus aureus 25923; test: as above; format: cell-based; details: S. aureus 25923
H. influenzae 35540 = test: Example 2: effect of incubation conditions on colony color formation; format: cell-based
N. meningitidis 13090 = format: cell-based; details: Chocolate II Agar, 0.004 g/plate; 24 h, CO2
S. pneumoniae (stpn) = test: Example 3: colony color on chromogenic TSA II with 5% sheep blood (chromogen in medium); format: cell-based; details: for Growth vs. control / Colony Color (Summary): chromogenic TSA II with 5% Sheep Blood, 0.1 g/l; for Colony Color (Summary): 6 strains tested; for Colony Color on Various Chromogenic TSA II with 5% Sheep Blood: 18 h
H. influenzae 10211 = test: Example 2: effect of incubation conditions on colony color formation; format: cell-based
N. sicca 29193 [7] = test: Example 1: growth and colony color on plates surface-spread with chromogen; format: cell-based
[8] = tested on: bacterial test strains of Example 1; test: Example 1: inhibitory effect over all test strains; format: cell-based; details: Example 1, all test strains
S. epidermidis 12228 [9] = test: Example 2: effect of incubation conditions on colony color formation; format: cell-based, Staphylococcus epidermidis
[10] = tested on: Haemophilus influenzae 35540; test: Example 1: growth and colony color on plates surface-spread with chromogen; format: cell-based; details: for Color: Substrate on Choclate II Agar, H. influ. 35540
[11] = tested on: Haemophilus influenzae 10211; test: as above; format: cell-based; details: Substrate on Choclate II Agar, H. influ. 10211
S. aureus 25923 = test: Example 2: effect of incubation conditions on colony color formation; format: cell-based, Staphylococcus aureus
[12] = Solubility of chromogen in DMSO; format: physicochemical; details: 0.08g in 1.0 ml DMSO
Experimental: In this series of experiments, 0.08g of each chromogen indicated below was added to 1.0 ml DMSO and thoroughly mixed.

S. pneumoniae 6303 = test: Example 2: effect of incubation conditions on colony color formation; format: cell-based, Streptococcus pneumoniae; details: TSA II 5% Sheep Blood, 0.004 g/plate; 24 h, CO2
[13] = tested on: Group D Strep / Enterococcus; test: Example 3: colony color on chromogenic TSA II with 5% sheep blood (chromogen in medium); details: 7 of 7 strains
S. mitis 6249 = test: Example 2: effect of incubation conditions on colony color formation; format: cell-based, Streptococcus mitis; details: TSA II 5% Sheep Blood, 0.004 g/plate; 24 h, CO2
C. perfringens 13124 = format: cell-based, Clostridium perfringens; details: TSA II 5% Sheep Blood, 0.004 g/plate; 5 d, ANA
[14] = Substrate on Choclate II Agar, N. mening. 13090

## O=P(O)(O)Oc1c[nH]c2cc(Cl)c(Br)cc12 [Mag-Phos, 5-Br-6-Cl-3-indolyl-phosphate, p-touidine salt]
N. sicca 29193 [1]
  Colony Color: purple (m)
[2]
  Colony Color: lp and lgb and 0
[3]
  Colony Color (Summary): 0
[3]; psae 9027, 21 h
  Colony Color: 0
[3]; psae 15442, 21 h
  Colony Color: 0
[3]; psae 33607, 21 h
  Colony Color: 0
S. epidermidis 12228 [4]; Choc II
  Color: purple
S. epidermidis 12228 [4]; Summary of Table I, S. epidermidis 12228
  Substrates Producing Color: Mag-phos
S. epidermidis 12228 [4]; TSA II 5SB
  Color: purple
S. epidermidis 12228 [4]; TSA Plain
  Color: purple
[5]
  Growth: = NC
[5]; [14]
  Color: colorless
[6]; Choc II
  Color: purple
[6]; Summary of Table I
  Substrates Producing Color: Mag-phos
[6]; TSA II 5SB
  Color: purple
[6]; TSA Plain
  Color: purple
H. influenzae 35540
  Colony Color: purple (m)
N. meningitidis 13090
  Colony Color: NC (col
S. pneumoniae (stpn)
  Growth vs. control: <growth
  Colony Color (Summary): 0,
S. pneumoniae (stpn); stpn 1259, CO2, 21 h
  Colony Color: 0
S. pneumoniae (stpn); stpn 1260, CO2, 21 h
  Colony Color: 0
S. pneumoniae (stpn); stpn 1628, CO2, 21 h
  Colony Color: 0
S. pneumoniae (stpn); stpn 6303, CO2, 24 h
  Colony Color: 0
S. pneumoniae (stpn); stpn 6303, air, 24 h
  Colony Color: db
S. pneumoniae (stpn); stpn 6305, CO2, 24 h
  Colony Color: 0
S. pneumoniae (stpn); stpn 6305, air, 24 h
  Colony Color: 0
H. influenzae 10211
  Colony Color: purple (m)
N. sicca 29193 [7]; Substrate on Choclate II Agar, N. sicca. 29193
  Color: purple
N. sicca 29193 [7]; Summary of Table I, N. sicca 29193
  Substrates Producing Color: Mag-phos
[8]
  Inhibitory effect: most inhibitory effect
S. epidermidis 12228 [9]
  Colony Color: purple (m)
[10]
  Color: purple
[10]; listed as Mag-phos
  Color: dark purple
[10]; Summary of Table I, H. influenzae 35540, 10211
  Substrates Producing Color: Mag-phos
[11]
  Color: purple
[11]; listed as Mag-phos
  Color: dark purple
S. aureus 25923
  Colony Color: purple (m)
[12]
  Solubility / appearance of solution in DMSO: clear and light orange in color

## CC(=O)N[C@H]1[C@H](Oc2c[nH]c3ccc(Br)c(Cl)c23)O[C@H](CO)[C@H](O)[C@@H]1O [X-Acglmn, 5-Br-4-Cl-3-indolyl-N-Acetyl-β-D-galactosaminide]
[2]; chromogenic TSA II with 5% Sheep Blood, 0.1 g/l, 3 strains tested
  Colony Color (Summary): 0
[2]; esco 11775, CO2, 18 h
  Colony Color: 0
[2]; esco 11775, CO2, 21 h
  Colony Color: 0
[2]; esco 25922, CO2, 24 h
  Colony Color: 0
[2]; esco 25922, air, 24 h
  Colony Color: 0
[2]; esco 33605, CO2, 18 h
  Colony Color: 0
[2]; esco 33605, CO2, 21 h
  Colony Color: 0
[3]
  Colony Color (Summary): 0
[3]; psae 9027, 18 h
  Colony Color: 0
[3]; psae 9027, 21 h
  Colony Color: 0
[3]; psae 15442, 18 h
  Colony Color: 0
[3]; psae 15442, 21 h
  Colony Color: 0
[3]; psae 33607, 18 h
  Colony Color: 0
[3]; psae 33607, 21 h
  Colony Color: 0
[5]; [14]
  Growth: <
[5]; Summary of Table I, N. meningitidis 13090
  Substrates Producing Growth Inhibition: Slight inhib w/ X-
S. pneumoniae 6303
  Colony Color: blue (l)
S. pneumoniae (stpn)
  Growth vs. control: <grth
  Colony Color (Summary): 0
S. pneumoniae (stpn); stpn 1259, CO2, 21 h
  Colony Color: 0
S. pneumoniae (stpn); stpn 1260, CO2, 21 h
  Colony Color: 0
S. pneumoniae (stpn); stpn 1331, CO2, 21 h
  Colony Color: 0
S. pneumoniae (stpn); stpn 1628, CO2, 21 h
  Colony Color: 0
S. pneumoniae (stpn); stpn 6303, CO2, 24 h
  Colony Color: 0
S. pneumoniae (stpn); stpn 6303, air, 24 h
  Colony Color: 0
S. pneumoniae (stpn); stpn 6305, CO2, 24 h
  Colony Color: 0
S. pneumoniae (stpn); stpn 6305, air, 24 h
  Colony Color: 0
S. pneumoniae (stpn); stpn t259, CO2
  Colony Color on Various Chromogenic TSA II with 5% Sheep Blood: 0
S. pneumoniae (stpn); stpn t260, CO2
  Colony Color on Various Chromogenic TSA II with 5% Sheep Blood: 0
S. pneumoniae (stpn); stpn t331, CO2
  Colony Color on Various Chromogenic TSA II with 5% Sheep Blood: drkr < muc
S. pneumoniae (stpn); stpn t628, CO2
  Colony Color on Various Chromogenic TSA II with 5% Sheep Blood: 0
[13]
  Colony Color: dark blue
S. mitis 6249
  Colony Color: blue (vl)
C. perfringens 13124
  Colony Color: blue (l)
